Reference: paper PMC9392260 (Journal of Inflammation Research, 2022)
Where two headings read alike, the source gives them in different places.

Assays:
Assay type in all cases: biochemical
[1] = molecular target: ACE2 (Homo sapiens, UniProt Q9BYF1); experiment: fluorescent ACE2 inhibitor screening kit
[2] = molecular target: T1, COX-2 (Homo sapiens, UniProt P35354); experiment: fluorescent COX-2 inhibitor screening kit
T1 sequence (P35354 18-604): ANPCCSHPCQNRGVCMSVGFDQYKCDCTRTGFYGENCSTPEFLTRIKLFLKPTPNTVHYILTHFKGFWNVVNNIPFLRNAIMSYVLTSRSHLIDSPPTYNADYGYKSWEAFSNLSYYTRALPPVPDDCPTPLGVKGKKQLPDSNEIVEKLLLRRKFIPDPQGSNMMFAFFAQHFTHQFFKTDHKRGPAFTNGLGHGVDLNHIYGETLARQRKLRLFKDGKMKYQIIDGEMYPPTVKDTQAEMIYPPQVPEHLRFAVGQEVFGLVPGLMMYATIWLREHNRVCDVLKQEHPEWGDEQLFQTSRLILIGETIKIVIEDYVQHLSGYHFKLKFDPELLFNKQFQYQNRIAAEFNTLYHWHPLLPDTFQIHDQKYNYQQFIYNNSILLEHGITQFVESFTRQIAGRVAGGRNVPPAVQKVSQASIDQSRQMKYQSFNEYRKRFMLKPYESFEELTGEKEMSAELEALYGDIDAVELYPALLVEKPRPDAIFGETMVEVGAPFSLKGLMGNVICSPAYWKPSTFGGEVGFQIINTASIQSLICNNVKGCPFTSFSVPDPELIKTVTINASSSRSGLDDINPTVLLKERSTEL

[3] = molecular target: T1, COX-2; experiment: fluorescent COX-2 inhibitor screening kit; remark: listed apart in the source

Chain of ACE2 (Q9BYF1 18-805): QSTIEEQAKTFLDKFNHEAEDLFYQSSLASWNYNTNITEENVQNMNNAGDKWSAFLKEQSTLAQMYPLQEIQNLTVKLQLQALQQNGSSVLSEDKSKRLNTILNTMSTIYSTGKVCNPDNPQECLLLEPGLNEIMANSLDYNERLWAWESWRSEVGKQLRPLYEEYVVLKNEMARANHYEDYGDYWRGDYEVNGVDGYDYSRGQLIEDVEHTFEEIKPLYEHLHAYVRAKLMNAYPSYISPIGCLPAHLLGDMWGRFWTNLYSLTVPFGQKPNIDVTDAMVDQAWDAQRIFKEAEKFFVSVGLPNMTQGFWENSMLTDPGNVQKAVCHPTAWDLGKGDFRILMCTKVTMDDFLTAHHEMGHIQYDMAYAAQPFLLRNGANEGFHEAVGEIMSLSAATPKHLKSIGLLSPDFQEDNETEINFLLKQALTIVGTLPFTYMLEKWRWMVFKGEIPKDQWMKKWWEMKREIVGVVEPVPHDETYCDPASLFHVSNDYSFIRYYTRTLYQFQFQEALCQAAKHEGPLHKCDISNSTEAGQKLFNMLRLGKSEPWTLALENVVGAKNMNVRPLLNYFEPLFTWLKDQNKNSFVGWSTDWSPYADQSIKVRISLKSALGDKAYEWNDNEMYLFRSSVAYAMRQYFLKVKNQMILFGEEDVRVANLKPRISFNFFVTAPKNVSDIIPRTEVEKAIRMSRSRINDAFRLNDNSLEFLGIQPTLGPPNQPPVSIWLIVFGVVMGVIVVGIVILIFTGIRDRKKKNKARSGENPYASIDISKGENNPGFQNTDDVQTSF

`O=c1c(O[C@@H]2O[C@H](CO)[C@@H](O)[C@H](O)[C@H]2O)c(-c2ccc(O)c(O)c2)oc2cc(O)cc(O)c12` [compound 5, Quercetin 3-O-glucoside] gave an IC50 [1] of 135 ± 6.54 µM.

`O=c1c(O)c(-c2ccc(O)cc2)oc2cc(O)cc(O)c12` [compound 11, Kaempferol] was tested, and the IC50 [2] was 0.36 ± 0.02 µM.

Compound `COc1cc([C@@H]2c3cc4c(cc3[C@H](O)[C@H]3COC(=O)[C@H]23)OCO4)cc(OC)c1OC` [compound 12, Podophyllotoxin] has an IC50 [3] of 10.5 ± 0.61 µM.
